Measured values reported in PubChem BioAssay AID1918991 (Molecular Pharmacology Branch, DTP, NCI, 2023).
pIC50: −log10 of the molar value.

System: 186277-243-T-J2-PDC complex spheroid growth
Experiment: Anticancer human tumor 186277-243-T-J2-PDC patient-derived colon adenocarcinoma cell line growth inhibition [AhR]
Conditions: for pIC50: curve of first compound; for viability, T/C: stronger effect = lower value
From the text: Multicellular complex tumor spheroid response to aryl hydrocarbon receptor antagonists in combination with a variety of drugs and investigational agents in selected tumor cell lines
The current study was undertaken to assess response to aryl hydrocarbon receptor antagonists in combination with standard-of-care drugs and investigational agents in solid tumor complex spheroid models. Complex spheroids include a stromal component modeled by human endothelial cells (HUVEC) and fibroblasts modeled by human mesenchymal stem cells (MSCs). The concentration ranges selected for each drug and investigational agent were based upon clinically achievable concentrations if the clinical Cmax of the agent was known.
Compounds. The drugs and investigational agents: BAY 2416964 (NSC825713), GNF351 (NSC835774), CH-223191 (NSC835775), CPI-455 (NSC825282), aza-TdCyd (NSC777586), decitabine (NSC127716), belinostat (NSC758774), entinostat (NSC756642), pevonedistat (NSC761192), tazemetostat (NSC777109), talazoparib (NSC765396), olaparib (NSC753686), selinexor (NSC780203), nedisertib (M3814, NSC802822), bortezomib (NSC756655), venetoclax (NSC766270), doxorubicin (NSC123127), elimusertib (BAY189344, NSC800525), ceralasertib (AZD6738, NSC777638), TAK-243 (NSC785004), alisertib (NSC759677), etoposide (NSC141540), topotecan (NSC609699), eribulin (NSC707389), gemcitabine (NSC613327), carboplatin (NSC241240), cisplatin (NSC119875), and SN-38 (NSC673596) were obtained from the National Cancer Institute (NCI) Developmental Therapeutics Program Chemical Repository (32). The FDA-approved anticancer drug set is available from the Developmental Therapeutics Program at https://dtp.cancer.gov/organization/dscb/obtaining/available plates.htm. […] The stock solutions were prepared in dimethyl sulfoxide (DMSO, Sigma-Aldrich, St. Louis, MO, cat. D2650), except for the platinum compounds which were prepared in saline (Quality Biological, Gaithersburg, MD, cat. 114-055-101), at 800-fold the tested concentration and stored at -70 degrees C prior to their use. All drugs and investigational agents were tested over a range starting from a high concentration at or near the clinical Cmax and decreasing in half-log increments. If the clinical Cmax for an agent had not been determined, the highest concentration tested was 10 microM (Table 1).
Cell Culture. All cells were maintained in an incubator at 37 degrees C and 5% CO2 with 95% humidity. The PDC lines were cultured according to standard operating procedures established by the NCI PDMR (https://pdmr.cancer.gov). Briefly, all PDCs were thawed and cultured in Matrigel-coated flasks prepared with a working solution of 1X Ham's F-12 nutrient mix, without supplementation (Invitrogen, Waltham, MA, cat. 11765054), 100 U/mL penicillin-streptomycin (Invitrogen, cat. 15140122), and 2.5% Matrigel (Corning Inc., Corning, NY, cat. 354248) for the first three passages. All PDCs were cultured in complete DMEM/F-12 media containing advanced DMEM/F-12 (Invitrogen, cat. 12634028), 4.9% defined fetal bovine serum, heat inactivated (HyClone Laboratories Inc., Logan, UT, cat. SH30070.03HI), 389 ng/mL hydrocortisone (Sigma-Aldrich, cat. H4001), 9.7 ng/mL human EGF recombinant protein (Invitrogen, cat. PHG0313), 23.4 microg/mL adenine (Sigma-Aldrich, cat. A2786), 97.3 U/mL penicillin-streptomycin (Invitrogen, cat. 15140122), 1.9 mM L-glutamine (Invitrogen, cat. 25030081), and 9.7 microM Y-27632 dihydrochloride (Tocris Bioscience, Bristol, United Kingdom, cat. 1254). The PDCs were cultured in complete DMEM/F12 media without 10 microM Y-27632 dihydrochloride for at least two passages prior to the screen. The established cell lines NCI-H1341 and […] were cultured in DMEM/F-12, HEPES (Invitrogen, cat. 11330032), 5% defined fetal bovine serum (HyClone Laboratories Inc., cat. SH30070.03), ITS premix universal culture supplement [insulin (5 microg/mL), transferrin (5 microg/mL), and selenious acid (5 ng/mL)] […]

[1] = second compound 0.1 µM, first compound 0.0316 µM
[2] = second compound 0.1 µM, first compound 0.1 µM
[3] = second compound 0.316 µM, first compound 0.0316 µM
[4] = second compound 0.316 µM, first compound 0.1 µM
[5] = second compound 1 µM, first compound 0.0316 µM
[6] = second compound 1 µM, first compound 0.1 µM
[7] = second compound 3.16 µM, first compound 0.0316 µM
[8] = second compound 3.16 µM, first compound 0.1 µM
[9] = second compound 10 µM, first compound 0.0316 µM
[10] = second compound 10 µM, first compound 0.1 µM
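Further: spheroids exposed to compounds for seven days before the viability read.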
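Wherever viability, T/C is given: luminescent signal used as a stand-in for viable cell amount; 100% = DMSO vehicle control wells.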

## CCc1c2c(nc3ccc(O)cc13)-c1cc3c(c(=O)n1C2)COC(=O)[C@]3(O)CC + CC(CO)NC(=O)c1cc(-c2ccc(Cl)cc2)nn(-c2cnn(C)c2)c1=O
Second compound 0.1 µM
  pIC50: > 9.02
Second compound 0.316 µM
  pIC50: > 9.02
Second compound 1 µM
  pIC50: > 9.02
Second compound 3.16 µM
  pIC50: > 9.02
Second compound 10 µM
  pIC50: > 9.02
Second compound 0.1 µM, first compound 0.000949 µM
  viability, T/C: 38.7%
Second compound 0.1 µM, first compound 0.003 µM
  viability, T/C: 30.1%
Second compound 0.1 µM, first compound 0.00949 µM
  viability, T/C: 22.8%
Second compound 0.1 µM, first compound 0.03 µM
  viability, T/C: 16.7%
Second compound 0.1 µM, first compound 0.0949 µM
  viability, T/C: 10.3%
Second compound 0.1 µM, first compound 0.3 µM
  viability, T/C: 6.69%
Second compound 0.316 µM, first compound 0.000949 µM
  viability, T/C: 38.5%
Second compound 0.316 µM, first compound 0.003 µM
  viability, T/C: 27.1%
Second compound 0.316 µM, first compound 0.00949 µM
  viability, T/C: 21.9%
Second compound 0.316 µM, first compound 0.03 µM
  viability, T/C: 15.6%
Second compound 0.316 µM, first compound 0.0949 µM
  viability, T/C: 8.35%
Second compound 0.316 µM, first compound 0.3 µM
  viability, T/C: 5.97%
Second compound 1 µM, first compound 0.000949 µM
  viability, T/C: 37.8%
Second compound 1 µM, first compound 0.003 µM
  viability, T/C: 28.9%
Second compound 1 µM, first compound 0.00949 µM
  viability, T/C: 24.8%
Second compound 1 µM, first compound 0.03 µM
  viability, T/C: 16.4%
Second compound 1 µM, first compound 0.0949 µM
  viability, T/C: 8.38%
Second compound 1 µM, first compound 0.3 µM
  viability, T/C: 6.06%
Second compound 3.16 µM, first compound 0.000949 µM
  viability, T/C: 31.3%
Second compound 3.16 µM, first compound 0.003 µM
  viability, T/C: 25.4%
Second compound 3.16 µM, first compound 0.00949 µM
  viability, T/C: 24.5%
Second compound 3.16 µM, first compound 0.03 µM
  viability, T/C: 15.3%
Second compound 3.16 µM, first compound 0.0949 µM
  viability, T/C: 9.33%
Second compound 3.16 µM, first compound 0.3 µM
  viability, T/C: 6.42%
Second compound 10 µM, first compound 0.000949 µM
  viability, T/C: 27.5%
Second compound 10 µM, first compound 0.003 µM
  viability, T/C: 25.6%
Second compound 10 µM, first compound 0.00949 µM
  viability, T/C: 22.6%
Second compound 10 µM, first compound 0.03 µM
  viability, T/C: 15.4%
Second compound 10 µM, first compound 0.0949 µM
  viability, T/C: 8.39%
Second compound 10 µM, first compound 0.3 µM
  viability, T/C: 6.77%

## CC1COCCN1c1cc(C2(S(C)(=N)=O)CC2)nc(-c2ccnc3[nH]ccc23)n1 (stereo not given) + CC(CO)NC(=O)c1cc(-c2ccc(Cl)cc2)nn(-c2cnn(C)c2)c1=O
Second compound 0.1 µM
  pIC50: 6.05
Second compound 0.316 µM
  pIC50: 6.05
Second compound 1 µM
  pIC50: 6.10
Second compound 3.16 µM
  pIC50: 6.13
Second compound 10 µM
  pIC50: 6.21
[1]
  viability, T/C: 99.5%
[2]
  viability, T/C: 97.3%
Second compound 0.1 µM, first compound 0.316 µM
  viability, T/C: 86%
Second compound 0.1 µM, first compound 1 µM
  viability, T/C: 47%
Second compound 0.1 µM, first compound 3.16 µM
  viability, T/C: 5.74%
Second compound 0.1 µM, first compound 10 µM
  viability, T/C: 3.37%
[3]
  viability, T/C: 97.9%
[4]
  viability, T/C: 101%
Second compound 0.316 µM, first compound 0.316 µM
  viability, T/C: 87.3%
Second compound 0.316 µM, first compound 1 µM
  viability, T/C: 47.1%
Second compound 0.316 µM, first compound 3.16 µM
  viability, T/C: 6.52%
Second compound 0.316 µM, first compound 10 µM
  viability, T/C: 3.04%
[5]
  viability, T/C: 109%
[6]
  viability, T/C: 92.8%
Second compound 1 µM, first compound 0.316 µM
  viability, T/C: 89.8%
Second compound 1 µM, first compound 1 µM
  viability, T/C: 41.1%
Second compound 1 µM, first compound 3.16 µM
  viability, T/C: 5.47%
Second compound 1 µM, first compound 10 µM
  viability, T/C: 2.94%
[7]
  viability, T/C: 91.1%
[8]
  viability, T/C: 90.9%
Second compound 3.16 µM, first compound 0.316 µM
  viability, T/C: 76.9%
Second compound 3.16 µM, first compound 1 µM
  viability, T/C: 41%
Second compound 3.16 µM, first compound 3.16 µM
  viability, T/C: 5.43%
Second compound 3.16 µM, first compound 10 µM
  viability, T/C: 2.86%
[9]
  viability, T/C: 76.3%
[10]
  viability, T/C: 75.9%
Second compound 10 µM, first compound 0.316 µM
  viability, T/C: 71.8%
Second compound 10 µM, first compound 1 µM
  viability, T/C: 33.7%
Second compound 10 µM, first compound 3.16 µM
  viability, T/C: 6.79%
Second compound 10 µM, first compound 10 µM
  viability, T/C: 3.4%

## Cn1ncnc1C1c2n[nH]c(=O)c3cc(F)cc(c23)NC1c1ccc(F)cc1 (stereo not given) + Cc1ccccc1N=Nc1ccc(NC(=O)c2ccnn2C)c(C)c1
Second compound 0.1 µM
  pIC50: < 7.00
Second compound 0.316 µM
  pIC50: < 7.00
Second compound 1 µM
  pIC50: < 7.00
Second compound 3.16 µM
  pIC50: < 7.00
Second compound 10 µM
  pIC50: < 7.00
Second compound 0.1 µM, first compound 0.000316 µM
  viability, T/C: 107%
Second compound 0.1 µM, first compound 0.001 µM
  viability, T/C: 101%
Second compound 0.1 µM, first compound 0.00316 µM
  viability, T/C: 107%
Second compound 0.1 µM, first compound 0.01 µM
  viability, T/C: 93.2%
[1]
  viability, T/C: 108%
[2]
  viability, T/C: 107%
Second compound 0.316 µM, first compound 0.000316 µM
  viability, T/C: 98.8%
Second compound 0.316 µM, first compound 0.001 µM
  viability, T/C: 113%
Second compound 0.316 µM, first compound 0.00316 µM
  viability, T/C: 101%
Second compound 0.316 µM, first compound 0.01 µM
  viability, T/C: 104%
[3]
  viability, T/C: 107%
[4]
  viability, T/C: 103%
Second compound 1 µM, first compound 0.000316 µM
  viability, T/C: 109%
Second compound 1 µM, first compound 0.001 µM
  viability, T/C: 98.3%
Second compound 1 µM, first compound 0.00316 µM
  viability, T/C: 109%
Second compound 1 µM, first compound 0.01 µM
  viability, T/C: 116%
[5]
  viability, T/C: 105%
[6]
  viability, T/C: 118%
Second compound 3.16 µM, first compound 0.000316 µM
  viability, T/C: 101%
Second compound 3.16 µM, first compound 0.001 µM
  viability, T/C: 101%
Second compound 3.16 µM, first compound 0.00316 µM
  viability, T/C: 113%
Second compound 3.16 µM, first compound 0.01 µM
  viability, T/C: 105%
[7]
  viability, T/C: 119%
[8]
  viability, T/C: 112%
Second compound 10 µM, first compound 0.000316 µM
  viability, T/C: 95.4%
Second compound 10 µM, first compound 0.001 µM
  viability, T/C: 96.7%
Second compound 10 µM, first compound 0.00316 µM
  viability, T/C: 101%
Second compound 10 µM, first compound 0.01 µM
  viability, T/C: 105%
[9]
  viability, T/C: 95.3%
[10]
  viability, T/C: 98.7%
